# In patent publication US20130136722A1, “Methods of Ex Vivo Expansion of Blood Progenitor Cells, and Generation of Composite Grafts” (The Board of Trustees of The University of Illinois, priority 2011, published 2013):
# Where “and” joins values, the source holds several entries; their conditions need not be identical. Identical values can stand only once.
# Tests used:
# [1] = test system: colony-forming cells (CFC); test: Colony-forming cell (CFC) assay of CMA expanded CB cells; assay type: cell-based, human; conditions: for CFC PE (%) (Colony Forming Cell Plating Efficiency): mean ± SEM of three independent experiments
# Protocol: Colony-forming cell (CFC) were assayed by plating 5×10^2 cells per dish in semisolid media and were counted after 14 days as described (Araki et al., 2009, Id.). The number of cobble stone area-forming cell (CAFC) was quantitated in primary and expanded CD34+ cells by plating in limiting dilution onto irradiated M2-10B4 stromal cells as described (Araki et al., 2009, Id.; Conneally et al., 1997, Proc. Natl. Acad. Sci. USA. 94: 9836-9841; Taswell, 1981, J. Immunol. 126: 1614-1619).
# In order to determine the a correlation between expansion of CD34^+CD90^+ cells and their functional potential as pluripotent hematopoietic stem cells, in vitro functional assays were performed, including assessment of colony-forming cells (CFC), a short-term assay, and cobblestone-area forming cells (CAFC), a long-term assay.
# [2] = test system: NOD/SCID mice; test: NOD/SCID transplantation assay: in vivo hematopoietic reconstitution by expanded CB cells; set-up: species or system mouse
# Protocol: (§1) Immunodeficient nonobese diabetic/ltsz-scid/scid (NOD/SCID) mice were purchased from Jackson Laboratories (Bar Harbor, Me.) and transplantation assays were performed as described (Araki et al., 2009, Id.; Araki et al., 2007, Id.; Taswell, 1981, Id.). Equal number of primary CD34^+ cells or the progeny of an equal initial number of CD34^+ cells following culture were injected per mouse intravenously. Mice were sacrificed 8 weeks after transplantation, and bone marrow (BM) cells from each mouse were analyzed by flow cytometry to detect multilineage human cell engraftment.
# Furthermore, hematopoietic stem cell potency of CMA-treated cord blood cells was evaluated in vivo by assaying hematopoietic repopulation potential of CD34^+ cells expanded with various CMAs. In these experiments, non-obese diabetic/severely combined immunodeficient (NOD/SCID) mice were transplanted with primary CD34^+ cells or the equivalent starting number of CD34^+ cells expanded in culture media supplemented by cytokines alone or in combination with 5azaD/TSA, VPA or 5azaD/VPA. […] Cells from cultures expanded with cytokines and VPA were capable of human hematopoietic engraftment in 2 out of 7 mice with a barely detectable level of chimerism (0.11%, 0.14%) (FIG. 2C).
# [3] = test system: NOD/SCID mice; test: SCID repopulating cell (SRC) frequency by limiting dilution analyses; assay type: in vivo, mouse; conditions: for (# of NOD/SCID mice engrafted)/(# of mice transplanted): Day 9
# Protocol: as §1
# The frequency of SCID-repopulating cells (SRCs) present in VPA-expanded, CD34^+CD90^+ cord blood-derived stem cells was quantitated in comparison to unmanipulated primary cord blood cells by in vivo xeno-transplant studies using limiting dilution analyses as described previously (Conneally et al., 1997, Proc. Natl. Acad. Sci. 94: 9836-41; Bhatia et al., 1997, J Exp Med. 186: 619-24; Wang et al., 1997, Blood 89: 3919-24; Chute et al., 2005, Blood 105: 576-83). The frequency of SRC was 1 in 22,000 (95% Confidence Interval: 1/11,722-1/41,293) in primary CD34^+CD90^+ cells, and 1 in 21,720 (95% Confidence Interval: 1/11,160-1/42,269) in the VPA expanded cultures (Table 5 and FIG. 2E).
# [4] = test system: genes implicated in HSC self-renewal, differentiation, expansion and maintenance; test: Real time quantitative PCR of gene transcripts in re-isolated expanded CD34+ cells; assay type: cell-based, human
# Protocol: RNA preparation and real time quantative PCR assays were performed using SYBR green dye (Life Technologies; Carlsbad, Calif.) and an ABI 7500 Fast Real-Time PCR system (Life Technologies) were used to quantitate gene expression in reverse-transcribed mRNA as described (Araki et al., 2007, Id.). Gene expression was calculated by relative quantitation, and all results were normalized to expression of GAPDH.
# To investigate whether treating cells with CMA altered gene expression, transcript levels of several genes associated with hematopoietic stem cell (HSC) self-renewal and differentiation were compared in unmanipulated primary CD34^+ cells (day 0) and CD34^+ cells expanded in the presence or absence of CMA (5azaD/TSA) during ex vivo culture. […] In the absence of 5azaD/TSA treatment, transcript levels of these genes were reduced over the course of 9 days of culture, correlating well with poor in vivo hematopoietic reconstitution capacity of untreated cells compared to unmanipulated primary or 5azaD/TSA expanded CD34^+ cells. […] In addition, transcript levels of CDK inhibitor P21, which regulates the G1/S transition of the cell cycle, was reduced in CD34^+ cells expanded in the absence of CMAs, but was not reduced in 5azaD/TSA expanded cells (p=0.06). Reduced P21 levels are generally associated with shorter G1/S transition and faster rate of cell divisions. […] This was also consistent with previous results showing membrane tracking dye as well as bromodeoxyuridine (BrdU) pulse chase assays of CD34^+CD90^+ cells during expansion culture (Araki et al., 2007, Blood 109: 3570-78).
# [5] = test system: LINE-1; test: Global DNA methylation (LINE-1) by pyrosequencing; assay type: cell-based, human; conditions: CD34+ cells at day 3 of culture; FIG. 6A
# Protocol: DNA methylation analysis was performed by EpigenDx (Worcester, Mass.) using quantitative pyrosequencing and the PSQ-HS96 system according to standard procedures (Warren et al., 2010, Cell Stem Cell. 7: 618-630). Primers were developed for the CpG sites near the promoter area as detailed in Table 3. Briefly, genomic DNA was isolated from primary or CMA expanded enriched CD34^+ cells using the Blood and Cell Culture DNA kit (Qiagen, Valencia Calif.). Genomic DNA was bisulfite treated by an EZ Methylation Kit (Zymo Research, Irvine, Calif.), and biotinylated gene specific primers or long interspersed nucleotide element 1 (LINE-1) primers were used to amplify regions of interest for analysis as described (Bhatia et al., 1997, J Exp Med. 186: 619-624).
# Global methylation of genomic DNA was quantified by assaying long interspersed nucleotide element 1 (LINE 1) methylation as a surrogate marker (Yang et al., 2004, Nucleic Acids Res. 32: e38). The degree of global methylation of CD34^+ cells prior to and following ex vivo culture in the presence or absence of CMAs (5azaD/TSA and VPA) was determined in these experiments. […] CD34^+ cells cultured in 5azaD/TSA and VPA had 55.4%±2.2% and 77.2%±2.0% methylation respectively at day 3 (FIG. 6A).
smiles,measurement,setting,value
"CCCC(CCC)C(=O)O [VPA, valproic acid]",fold expansion of primitive CFU-mix colonies,"[1]; cytokines plus CMA, FIG. 2A",13.3±4.7 fold
same,CFC PE (%) (Colony Forming Cell Plating Efficiency),[1],15.27%
same,CFC PE (%) (Colony Forming Cell Plating Efficiency),[1]; listed as VPA Alone,15.27 ± 3.66 %
same,regenerative capacity (in vivo hematopoietic reconstitution function) of expanded CD34+ cells,[2]; Day 9 expanded CD34+ cells,possessing regenerative potential
same,multilineage differentiation of expanded cells following transplantation,[2]; FIG. 2D,retained the ability to differentiate into both myeloid and lymphoid lineages
same,mice with human hematopoietic engraftment of mice transplanted,"[2]; cells expanded with cytokines plus CMA, i.v., analysed 8 weeks after transplantation, FIG. 2C",2 out of 7
same,human hematopoietic chimerism (human CD45+ cells in mouse bone marrow),"[2]; engrafted recipient mice, FIG. 2C",0.11% and 0.14%
same,(# of NOD/SCID mice engrafted)/(# of mice transplanted),"[3]; 2,000 CD34+CD90+ cells used to initiate ex vivo culture",0/7
same,(# of NOD/SCID mice engrafted)/(# of mice transplanted),"[3]; 5,000 CD34+CD90+ cells used to initiate ex vivo culture",2/5
same,(# of NOD/SCID mice engrafted)/(# of mice transplanted),"[3]; 10,000 CD34+CD90+ cells used to initiate ex vivo culture",2/7
same,(# of NOD/SCID mice engrafted)/(# of mice transplanted),"[3]; 20,000 CD34+CD90+ cells used to initiate ex vivo culture",5/8
same,SRC numbers during ex-vivo culture (in words),"[3]; mouse, in vivo",maintained SRC numbers
same,transcript levels of Alox5 in contrast to CD34+ cells expanded in 5azaD/TSA,[4],significantly higher
same,transcript levels of S100A8 and Alox5 in contrast to controls,"[4]; FIGS. 5A, 5B",increased
same,transcript levels of GATA1 compared with control cultures,"[4]; day 3, FIG. 3B",significantly increased
same,mean LINE 1 methylation (four CpG sites),[5],77.2%
